Results published in patent US11427558B1, “Indazoles and azaindazoles as LRRK2 inhibitors” (ESCAPE Bio, Inc., priority 2019, dated 2022).

Key:
[1] = target: Recombinant wild type LRRK2 protein (Homo sapiens (Human), UniProt Q5S007); test: LRRK2 kinase activity, LanthaScreen TR-FRET assay (wild type); assay type: biochemical; conditions: LRRKtide 400 nM, 25 μM ATP, 60 min; read-out: LRRK2 WT IC50
Summary of the method: (§1)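 Recombinant human wild-type or G2019S LRRK2 phosphorylated fluorescein-labelled LRRKtide (ERM-based) with ATP and serially diluted compound for 60 min at room temperature.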

[2] = target: Recombinant G2019S-LRRK2 protein (Homo sapiens (Human), UniProt Q5S007, G2019S); test: LRRK2 kinase activity, LanthaScreen TR-FRET assay (G2019S); assay type: biochemical; conditions: LRRKtide 400 nM, 25 μM ATP, 60 min
Sequence of Recombinant G2019S-LRRK2 protein (Q5S007 whole entry G2019S): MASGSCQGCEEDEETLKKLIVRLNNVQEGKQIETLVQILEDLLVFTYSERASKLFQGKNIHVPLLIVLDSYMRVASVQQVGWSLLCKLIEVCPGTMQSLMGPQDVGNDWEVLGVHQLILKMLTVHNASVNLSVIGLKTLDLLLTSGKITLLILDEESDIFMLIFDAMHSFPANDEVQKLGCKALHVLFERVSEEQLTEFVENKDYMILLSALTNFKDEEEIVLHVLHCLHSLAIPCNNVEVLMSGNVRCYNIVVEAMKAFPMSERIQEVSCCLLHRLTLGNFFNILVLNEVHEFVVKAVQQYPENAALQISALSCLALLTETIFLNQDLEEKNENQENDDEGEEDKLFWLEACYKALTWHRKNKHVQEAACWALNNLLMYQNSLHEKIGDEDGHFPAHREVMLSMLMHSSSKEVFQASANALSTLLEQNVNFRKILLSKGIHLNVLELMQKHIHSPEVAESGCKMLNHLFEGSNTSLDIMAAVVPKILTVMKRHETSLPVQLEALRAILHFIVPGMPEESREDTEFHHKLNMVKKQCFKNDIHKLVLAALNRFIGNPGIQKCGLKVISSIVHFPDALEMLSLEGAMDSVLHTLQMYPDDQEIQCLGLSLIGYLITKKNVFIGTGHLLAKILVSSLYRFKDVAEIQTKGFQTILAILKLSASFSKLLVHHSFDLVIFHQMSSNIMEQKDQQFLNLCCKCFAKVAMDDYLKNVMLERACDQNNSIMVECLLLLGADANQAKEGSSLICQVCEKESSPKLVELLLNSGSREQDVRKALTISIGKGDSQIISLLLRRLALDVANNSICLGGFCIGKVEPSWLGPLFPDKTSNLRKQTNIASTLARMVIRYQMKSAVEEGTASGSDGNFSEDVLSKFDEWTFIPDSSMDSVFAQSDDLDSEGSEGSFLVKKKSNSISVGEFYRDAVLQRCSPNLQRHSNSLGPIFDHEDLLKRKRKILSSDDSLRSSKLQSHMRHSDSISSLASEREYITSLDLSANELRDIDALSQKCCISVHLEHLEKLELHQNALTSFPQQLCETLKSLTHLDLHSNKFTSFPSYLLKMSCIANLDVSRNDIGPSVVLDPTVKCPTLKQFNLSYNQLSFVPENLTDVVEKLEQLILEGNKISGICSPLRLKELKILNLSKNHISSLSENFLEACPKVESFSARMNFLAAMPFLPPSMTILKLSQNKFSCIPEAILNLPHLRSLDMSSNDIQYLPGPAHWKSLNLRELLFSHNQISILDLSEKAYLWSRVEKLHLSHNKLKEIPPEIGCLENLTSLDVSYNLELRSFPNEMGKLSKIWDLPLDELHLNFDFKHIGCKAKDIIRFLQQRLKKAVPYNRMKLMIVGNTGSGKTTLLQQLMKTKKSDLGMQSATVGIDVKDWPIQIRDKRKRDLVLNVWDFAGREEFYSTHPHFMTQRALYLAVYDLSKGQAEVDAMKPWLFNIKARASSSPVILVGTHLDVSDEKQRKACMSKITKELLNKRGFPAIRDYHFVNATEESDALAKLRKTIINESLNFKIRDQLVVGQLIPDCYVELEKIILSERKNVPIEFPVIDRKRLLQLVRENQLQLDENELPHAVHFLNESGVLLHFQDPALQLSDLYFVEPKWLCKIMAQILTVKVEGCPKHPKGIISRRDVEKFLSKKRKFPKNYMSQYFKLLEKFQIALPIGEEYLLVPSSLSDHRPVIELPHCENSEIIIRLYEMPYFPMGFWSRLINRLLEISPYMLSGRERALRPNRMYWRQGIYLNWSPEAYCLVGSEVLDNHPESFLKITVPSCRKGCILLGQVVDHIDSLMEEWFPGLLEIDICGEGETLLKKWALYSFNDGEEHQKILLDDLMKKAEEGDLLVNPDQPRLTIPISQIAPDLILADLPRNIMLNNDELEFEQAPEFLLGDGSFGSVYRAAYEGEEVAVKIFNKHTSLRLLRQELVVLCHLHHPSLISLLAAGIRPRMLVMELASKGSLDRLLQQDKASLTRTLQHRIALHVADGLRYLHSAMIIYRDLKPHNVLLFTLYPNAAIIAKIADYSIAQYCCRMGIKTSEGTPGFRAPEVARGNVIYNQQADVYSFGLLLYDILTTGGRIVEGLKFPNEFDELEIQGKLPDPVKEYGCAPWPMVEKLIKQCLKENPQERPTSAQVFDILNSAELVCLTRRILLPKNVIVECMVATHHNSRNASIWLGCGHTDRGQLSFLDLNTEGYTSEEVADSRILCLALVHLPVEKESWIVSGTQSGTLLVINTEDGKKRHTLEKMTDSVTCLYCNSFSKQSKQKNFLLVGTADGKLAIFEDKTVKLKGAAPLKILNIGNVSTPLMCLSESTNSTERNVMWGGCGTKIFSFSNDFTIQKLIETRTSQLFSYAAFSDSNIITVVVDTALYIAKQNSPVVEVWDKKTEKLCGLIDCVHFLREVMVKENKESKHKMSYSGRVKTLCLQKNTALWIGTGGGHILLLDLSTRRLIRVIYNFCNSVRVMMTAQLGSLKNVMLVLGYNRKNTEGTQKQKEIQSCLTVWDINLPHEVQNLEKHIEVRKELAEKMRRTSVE
Summary of the method: as §1

Sequence of Recombinant wild type LRRK2 protein (Q5S007 whole entry): as the sequence (Q5S007 whole entry G2019S) above, with S2019G counted along it

Structure (SMILES) | IC50 [1] [nM] | IC50 [2] [nM]
CC(C)c1cc(C#N)cnc1C(=O)Nc1ccc2[nH]nc(-c3cnco3)c2c1 [Example 251, 5-Cyano-3-isopropyl-N-(3-(oxazol-5-yl)-1H-indazol-5-yl)picolinamide] | 100 to 1000 | < 100
Cc1c(C#N)cnc(C(=O)Nc2ccc3[nH]nc(-c4cnn(CF)c4)c3c2)c1C [Example 172, 5-Cyano-N-(3-(1-(fluoromethyl)-1H-pyrazol-4-yl)-1H-indazol-5-yl)-3,4-dimethylpicolinamide] | < 100 | < 100
Cc1c(C(=O)Nc2ccc3[nH]nc(C)c3c2)ncc(C#N)c1Cl [Example 306, 4-Chloro-5-cyano-3-methyl-N-(3-methyl-1H-indazol-5-yl)picolinamide] | 100 to 1000 | < 100
N#Cc1ccc(C(=O)Nc2ccc3[nH]nc(-c4ccoc4)c3c2)c(Br)c1 [Example 2, 2-Bromo-4-cyano-N-(3-(furan-3-yl)-1H-indazol-5-yl)benzamide] | < 100 | < 100
CCc1cc(C#N)cnc1C(=O)Nc1ccc2[nH]nc(-c3ccoc3)c2c1 [Example 83, 5-Cyano-3-ethyl-N-(3-(furan-3-yl)-1H-indazol-5-yl)picolinamide] | 100 to 1000 | < 100
Cc1cc(C#N)cnc1C(=O)Nc1ccc2[nH]nc(-c3ccnc(N4C[C@H](C)C[C@H](C)C4)c3)c2c1 [Example 117, 5-Cyano-N-(3-(2-((3R,5S)-3,5-dimethylpiperidin-1-yl)pyridin-4-yl)-1H-indazol-5-yl)-3-methylpicolinamide] | 100 to 1000 | < 100
N#Cc1ccc(C(=O)Nc2ccc3[nH]nc(-c4ccoc4)c3c2)cn1 [Example 9, 6-Cyano-N-(3-(furan-3-yl)-1H-indazol-5-yl)nicotinamide] | 100 to 1000 | < 100
N#Cc1cc(F)c(C(=O)Nc2ccc3[nH]nc(-c4ccoc4)c3c2)c(F)c1 [Example 7, 4-Cyano-2,6-difluoro-N-(3-(furan-3-yl)-1H-indazol-5-yl)benzamide] | < 100 | < 100
COc1c(C#N)cccc1C(=O)Nc1ccc2[nH]nc(-c3cnn(C(F)F)c3)c2c1 [Example 164, 3-Cyano-N-(3-(1-(difluoromethyl)-1H-pyrazol-4-yl)-1H-indazol-5-yl)-2-methoxybenzamide] | < 100 | < 100
Cc1cc(C#N)cnc1C(=O)Nc1ccc2[nH]nc(-c3cnn(C)c3C)c2c1 [Example 123, 5-Cyano-N-(3-(1,5-dimethyl-1H-pyrazol-4-yl)-1H-indazol-5-yl)-3-methylpicolinamide] | 100 to 1000 | < 100
Cc1ccc(C#N)c(F)c1C(=O)Nc1ccc2[nH]nc(-c3cnn(C(F)F)c3)c2c1 [Example 177, 3-Cyano-N-(3-(1-(difluoromethyl)-1H-pyrazol-4-yl)-1H-indazol-5-yl)-2-fluoro-6-methylbenzamide] | < 100 | < 100
COc1cc(-c2n[nH]c3ccc(NC(=O)c4c(C)c(C#N)nn4C)cc23)ccn1 [Example 194, 3-Cyano-N-(3-(2-methoxypyridin-4-yl)-1H-indazol-5-yl)-1,4-dimethyl-1H-pyrazole-5-carboxamide] | 100 to 1000 | < 100
N#Cc1ccc(F)c(C(=O)Nc2ccc3[nH]nc(-c4cnn(C(F)F)c4)c3c2)c1F [Example 163, 3-Cyano-N-(3-(1-(difluoromethyl)-1H-pyrazol-4-yl)-1H-indazol-5-yl)-2,6-difluorobenzamide] | < 100 | < 100
N#Cc1cccc(C(=O)Nc2ccc3[nH]nc(-c4cnco4)c3c2)c1Cl [Example 209, 2-chloro-3-cyano-N-(3-(oxazol-5-yl)-1H-indazol-5-yl)benzamide] | < 100 | < 100
Cc1ccc(-c2n[nH]c3ccc(NC(=O)c4ncc(C#N)cc4C)cc23)cc1C [Example 28, 5-Cyano-N-(3-(3,4-dimethylphenyl)-1H-indazol-5-yl)-3-methylpicolinamide] | 100 to 1000 | < 100
Cc1cc(C#N)cnc1C(=O)Nc1ccc2[nH]nc(I)c2c1 [Example 87, 5-cyano-N-(3-iodo-1H-indazol-5-yl)-3-methylpicolinamide] | 100 to 1000 | < 100
Cc1c(C#N)nn(C)c1C(=O)Nc1ccc2[nH]nc(-c3cnco3)c2c1 [Example 239, 3-Cyano-1,4-dimethyl-N-(3-(oxazol-5-yl)-1H-indazol-5-yl)-1H-pyrazole-5-carboxamide] | < 100 | 100 to 1000
N#Cc1cccc(C(=O)Nc2ccc3[nH]nc(-c4ccoc4)c3c2)n1 [Example 127, 6-Cyano-N-(3-(furan-3-yl)-1H-indazol-5-yl)picolinamide] | < 100 | < 100
Cc1nc(C(=O)Nc2ccc3[nH]nc(-c4cnco4)c3c2)c(C)c(C)c1C#N [Example 202, 5-Cyano-3,4,6-trimethyl-N-(3-(oxazol-5-yl)-1H-indazol-5-yl)picolinamide] | < 100 | < 100
Cc1c(C#N)cnc(C(=O)Nc2ccc3[nH]nc(Br)c3c2)c1C [Example 300, N-(3-Bromo-1H-indazol-5-yl)-5-cyano-3,4-dimethylpicolinamide] | 100 to 1000 | < 100

Structure (SMILES) | IC50 [1] [nM] | IC50 [2] [nM]
COc1nc(C(=O)Nc2ccc3[nH]nc(C4CC4)c3c2)c(C)c(C)c1C#N [Example 304, 5-Cyano-N-(3-cyclopropyl-1H-indazol-5-yl)-6-methoxy-3,4-dimethylpicolinamide] | < 100 | < 100
COc1cc(C(=O)Nc2ccc3[nH]nc(-c4cnco4)c3c2)nc(C)c1C#N [Example 258, 5-Cyano-4-methoxy-6-methyl-N-(3-(oxazol-5-yl)-1H-indazol-5-yl)picolinamide] | 1000 to 10000 | < 100
Cc1n[nH]c2ccc(NC(=O)c3ncc(C#N)cc3C(C)C)cc12 [Example 294, 5-Cyano-3-isopropyl-N-(3-methyl-1H-indazol-5-yl)picolinamide] | 1000 to 10000 | 100 to 1000
Cc1cc(C#N)ccc1C(=O)Nc1ccc2[nH]nc(C)c2c1 [Example 12, 4-Cyano-2-methyl-N-(3-methyl-1H-indazol-5-yl)benzamide] | 100 to 1000 | < 100
Cc1cc(C#N)cnc1C(=O)Nc1ccc2[nH]nc(-c3ccc4ocnc4c3)c2c1 [Example 71, N-(3-(Benzo[d]oxazol-5-yl)-1H-indazol-5-yl)-5-cyano-3-methylpicolinamide] | 100 to 1000 | < 100
Cc1c(C#N)noc1C(=O)Nc1ccc2[nH]nc(-c3ccoc3)c2c1 [Example 180, 3-Cyano-N-(3-(furan-3-yl)-1H-indazol-5-yl)-4-methylisoxazole-5-carboxamide] | 100 to 1000 | 100 to 1000
COc1n[nH]c2ccc(NC(=O)c3nc(C)c(C#N)c(C)c3C)cc12 [Example 287, 5-Cyano-N-(3-methoxy-1H-indazol-5-yl)-3,4,6-trimethylpicolinamide] | 100 to 1000 | < 100
N#Cc1ccc(F)c(C(=O)Nc2ccc3[nH]nc(-c4ccoc4)c3c2)c1 [Example 122, 5-Cyano-2-fluoro-N-(3-(furan-3-yl)-1H-indazol-5-yl)benzamide] | < 100 | < 100
N#Cc1cnc(C(=O)Nc2ccc3[nH]nc(-c4ccoc4)c3c2)c(F)c1 [Example 1, 5-Cyano-3-fluoro-N-(3-(furan-3-yl)-1H-indazol-5-yl)picolinamide] | < 100 | < 100
N#Cc1cccc(C(=O)Nc2ccc3[nH]nc(-c4cnoc4)c3c2)c1Cl [Example 220, 2-Chloro-3-cyano-N-(3-(isoxazol-4-yl)-1H-indazol-5-yl)benzamide] | < 100 | < 100
Cc1ccc(C#N)c(F)c1C(=O)Nc1ccc2[nH]nc(-c3cnoc3)c2c1 [Example 236, 3-Cyano-2-fluoro-N-(3-(isoxazol-4-yl)-1H-indazol-5-yl)-6-methylbenzamide] | < 100 | < 100
N#Cc1ccc(C(=O)Nc2ccc3[nH]nc(-c4ccoc4)c3c2)c(O)c1 [Example 107, 4-Cyano-N-(3-(furan-3-yl)-1H-indazol-5-yl)-2-hydroxybenzamide] | 100 to 1000 | 100 to 1000
N#Cc1cncc(C(=O)Nc2ccc3[nH]nc(-c4ccncc4)c3c2)c1 [Example 24, 5-Cyano-N-(3-(pyridin-4-yl)-1H-indazol-5-yl)nicotinamide] | 100 to 1000 | 100 to 1000
Cc1c(C(=O)Nc2ccc3[nH]nc(-c4ccoc4)c3c2)noc1C#N [Example 179, 5-Cyano-N-(3-(furan-3-yl)-1H-indazol-5-yl)-4-methylisoxazole-3-carboxamide] | < 100 | < 100
Cc1c(C(=O)Nc2ccc3[nH]nc(C)c3c2)nc(Cl)c(C#N)c1C [Example 298, 6-Chloro-5-cyano-3,4-dimethyl-N-(3-methyl-1H-indazol-5-yl)picolinamide] | < 100 | < 100
Cc1c(C(=O)Nc2ccc3[nH]nc(C4CC4)c3c2)nc(Br)c(C#N)c1C [Example 330, 6-Bromo-5-cyano-N-(3-cyclopropyl-1H-indazol-5-yl)-3,4-dimethylpicolinamide] | < 100 | < 100
Cc1c(C#N)cnc(C(=O)Nc2ccc3[nH]nc(C4CC4)c3c2)c1C [Example 223, 5-Cyano-N-(3-cyclopropyl-1H-indazol-5-yl)-3,4-dimethylpicolinamide] | 1000 to 10000 | < 100
Cc1cc(F)cc(-c2n[nH]c3ccc(NC(=O)c4ncc(C#N)cc4C)cc23)c1 [Example 61, 5-Cyano-N-(3-(3-fluoro-5-methylphenyl)-1H-indazol-5-yl)-3-methylpicolinamide] | 100 to 1000 | < 100
Cc1nc(C(=O)Nc2ccc3[nH]nc(-c4cnn(C(F)F)c4)c3c2)c(C)c(C)c1C#N [Example 185, 5-Cyano-N-(3-(1-(difluoromethyl)-1H-pyrazol-4-yl)-1H-indazol-5-yl)-3,4,6-trimethylpicolinamide] | < 100 | < 100
